Values quoted from earlier work, collected in patent publication US20190000898A1, “COMBINING ADENOVIRUS AND CHEMOTHERAPEUTIC AGENTS FOR TREATING CANCER” (priority 2016, published 2019).

Key:
[1] = test system: unresectable MPM; conditions: patients; p=0.02
[2] = test system: syngeneic pancreatic tumors; conditions: immune-competent hamsters

Compound | median survival [1] | antitumor efficacy (tumor growth) [2]
N.N.[Cl][Pt][Cl] [Cisplatin] | 9 months | 
O=P1(N(CCCl)CCCl)NCCCO1 (centres unmarked) [cyclophosphamide] |  | did not result in significant reduction of tumor growth
